In the oligonucleotide strings, read from the 5' end, every base follows the letter of its sugar. An asterisk marks phosphorothioate; unmarked linkages are phosphodiester. Other units and linkages are bracketed, terminal groups are in braces. A string of capitals states the bases alone. e = 2'-O-(2-methoxyethyl) (MOE); [5mC] = 5-methylcytosine; d = 2'-deoxy (DNA)
Test system: human apolipoprotein B mRNA
Experiment: Inhibition of human apolipoprotein B mRNA levels in HepG2 cells, quantitative real-time PCR
Assay type: cell-based
Conditions: HepG2 cells
Summary of the method: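 HepG2 cells at 80% confluency were transfected with antisense oligonucleotide using 3.75 μg/mL Lipofectin in Opti-MEM for 4-7 h and harvested 16-24 h after treatment. Apolipoprotein B mRNA was measured by real-time RT-PCR and normalized to GAPDH or RiboGreen total RNA. Percent inhibition came from untreated-control standard curves.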

[1] = Table 11 gene walk, 50 nM, averages from two experiments
[2] = Table 11 gene walk, 150 nM, averages from two experiments
[3] = Table 13 gene walk, 50 nM, averages from two experiments
[4] = Table 13 gene walk, 150 nM, averages from two experiments
[5] = Table 17 variable gap, 50 nM, averages from three experiments
[6] = Table 17 variable gap, 150 nM, averages from three experiments
[7] = 50 nm oligonucleotide, variable deoxy gap position
[8] = 150 nm oligonucleotide, variable deoxy gap position

Substance | % INHIB 50 nm [1] | % INHIB 150 nm [2] | also measured
308594 (antisense eT*eG*e[5mC]*eT*eT*d[5mC]*dG*d[5mC]*dA*d[5mC]*d[5mC]*dT*dT*d[5mC]*dT*eG*e[5mC]*eT*eT*eG) [compound 308594] | 57% | 88% | 
308595 (antisense eT*e[5mC]*eT*eG*e[5mC]*dT*dT*d[5mC]*dG*d[5mC]*dA*d[5mC]*d[5mC]*dT*dT*e[5mC]*eT*eG*e[5mC]*eT) [compound 308595] | 60% | 82% | 
308596 (antisense eA*eG*eT*e[5mC]*eT*dG*d[5mC]*dT*dT*d[5mC]*dG*d[5mC]*dA*d[5mC]*d[5mC]*eT*eT*e[5mC]*eT*eG) [compound 308596] | 81% | 94% | 
308597 (antisense eT*e[5mC]*eA*eG*eT*d[5mC]*dT*dG*d[5mC]*dT*dT*d[5mC]*dG*d[5mC]*dA*e[5mC]*e[5mC]*eT*eT*e[5mC]) [compound 308597] | 66% | 91% | 
308598 (antisense e[5mC]*e[5mC]*eT*e[5mC]*eA*dG*dT*d[5mC]*dT*dG*d[5mC]*dT*dT*d[5mC]*dG*e[5mC]*eA*e[5mC]*e[5mC]*eT) [compound 308598] | 59% | 85% | 
308599 (antisense eA*eG*e[5mC]*e[5mC]*eT*d[5mC]*dA*dG*dT*d[5mC]*dT*dG*d[5mC]*dT*dT*e[5mC]*eG*e[5mC]*eA*e[5mC]) [compound 308599] | 79% | 94% | 
308600 (antisense eG*eT*eA*eG*e[5mC]*d[5mC]*dT*d[5mC]*dA*dG*dT*d[5mC]*dT*dG*d[5mC]*eT*eT*e[5mC]*eG*e[5mC]) [compound 308600] | 72% | 89% | 
308601 (antisense eT*eG*eG*eT*eA*dG*d[5mC]*d[5mC]*dT*d[5mC]*dA*dG*dT*d[5mC]*dT*eG*e[5mC]*eT*eT*e[5mC]) [compound 308601] | 63% | 91% | 
308602 (antisense e[5mC]*eA*eT*eG*eG*dT*dA*dG*d[5mC]*d[5mC]*dT*d[5mC]*dA*dG*dT*e[5mC]*eT*eG*e[5mC]*eT) [compound 308602] | 83% | 92% | 
308603 (eG*eT*e[5mC]*eA*eT*dG*dG*dT*dA*dG*d[5mC]*d[5mC]*dT*d[5mC]*dA*eG*eT*e[5mC]*eT*eG; antisense) [compound 308603] | 56% | 97% | 
308604 (eA*eT*eG*eT*e[5mC]*dA*dT*dG*dG*dT*dA*dG*d[5mC]*d[5mC]*dT*e[5mC]*eA*eG*eT*e[5mC]; antisense) [compound 308604] | 73% | 90% | 
308605 (eG*eA*eA*eT*eG*dT*d[5mC]*dA*dT*dG*dG*dT*dA*dG*d[5mC]*e[5mC]*eT*e[5mC]*eA*eG; antisense) [compound 308605] | 50% | 81% | 
308606 (eT*eT*eG*eA*eA*dT*dG*dT*d[5mC]*dA*dT*dG*dG*dT*dA*eG*e[5mC]*e[5mC]*eT*e[5mC]; antisense) [compound 308606] | 54% | 97% | 
308607 (eA*eT*eT*eT*eG*dA*dA*dT*dG*dT*d[5mC]*dA*dT*dG*dG*eT*eA*eG*e[5mC]*e[5mC]; antisense) [compound 308607] | 9% | 77% | 
308608 (eA*eT*eA*eT*eT*dT*dG*dA*dA*dT*dG*dT*d[5mC]*dA*dT*eG*eG*eT*eA*eG; antisense) [compound 308608] | 70% | 85% | 
308609 (e[5mC]*eA*eG*e[5mC]*e[5mC]*dA*d[5mC]*dA*dT*dG*d[5mC]*dA*dG*d[5mC]*dT*eT*e[5mC]*eA*eG*eG; antisense) [compound 308609] | 78% | 96% | 
308610 (eA*e[5mC]*e[5mC]*eA*eG*d[5mC]*d[5mC]*dA*d[5mC]*dA*dT*dG*d[5mC]*dA*dG*e[5mC]*eT*eT*e[5mC]*eA; antisense) [compound 308610] | 40% | 90% | 
308611 (eT*eT*eA*e[5mC]*e[5mC]*dA*dG*d[5mC]*d[5mC]*dA*d[5mC]*dA*dT*dG*d[5mC]*eA*eG*e[5mC]*eT*eT; antisense) [compound 308611] | 59% | 95% | 
308612 (eG*eG*eT*eT*eA*d[5mC]*d[5mC]*dA*dG*d[5mC]*d[5mC]*dA*d[5mC]*dA*dT*eG*e[5mC]*eA*eG*e[5mC]; antisense) [compound 308612] | 75% | 90% | 
308613 (eT*eA*eG*eG*eT*dT*dA*d[5mC]*d[5mC]*dA*dG*d[5mC]*d[5mC]*dA*d[5mC]*eA*eT*eG*e[5mC]*eA; antisense) [compound 308613] | 43% | 87% | 

Substance | % INHIB 50 nm [1] | % INHIB 150 nm [2] | also measured
308614 (eT*eT*eT*eA*eG*dG*dT*dT*dA*d[5mC]*d[5mC]*dA*dG*d[5mC]*d[5mC]*eA*e[5mC]*eA*eT*eG; antisense) [compound 308614] | 74% | 92% | 
308615 (e[5mC]*eT*eT*eT*eT*dA*dG*dG*dT*dT*dA*d[5mC]*d[5mC]*dA*dG*e[5mC]*e[5mC]*eA*e[5mC]*eA; antisense) [compound 308615] | 45% | 85% | 
308616 (eT*e[5mC]*e[5mC]*eT*eT*dT*dT*dA*dG*dG*dT*dT*dA*d[5mC]*d[5mC]*eA*eG*e[5mC]*e[5mC]*eA; antisense) [compound 308616] | 39% | 81% | 
308617 (eG*e[5mC]*eT*e[5mC]*e[5mC]*dT*dT*dT*dT*dA*dG*dG*dT*dT*dA*e[5mC]*e[5mC]*eA*eG*e[5mC]; antisense) [compound 308617] | 77% | 87% | 
308618 (eA*eG*eG*e[5mC]*eT*d[5mC]*d[5mC]*dT*dT*dT*dT*dA*dG*dG*dT*eT*eA*e[5mC]*e[5mC]*eA; antisense) [compound 308618] | 61% | 77% | 
308619 (eG*eT*eA*eG*eG*d[5mC]*dT*d[5mC]*d[5mC]*dT*dT*dT*dT*dA*dG*eG*eT*eT*eA*e[5mC]; antisense) [compound 308619] | 69% | 74% | 
308620 (eT*eG*eG*eT*eA*dG*dG*d[5mC]*dT*d[5mC]*d[5mC]*dT*dT*dT*dT*eA*eG*eG*eT*eT; antisense) [compound 308620] | 69% | 88% | 
308621 (eT*eT*eT*eG*eG*dT*dA*dG*dG*d[5mC]*dT*d[5mC]*d[5mC]*dT*dT*eT*eT*eA*eG*eG; antisense) [compound 308621] | 56% | 91% | 
308622 (eG*e[5mC]*e[5mC]*eT*eT*d[5mC]*dT*dG*d[5mC]*dT*dT*dG*dA*dG*dT*eT*eA*e[5mC]*eA*eA; antisense) [compound 308622] |  |  | % INHIB 50 nm [3]: 25%; % INHIB 150 nm [4]: 87%
308623 (eG*e[5mC]*eG*e[5mC]*e[5mC]*dT*dT*d[5mC]*dT*dG*d[5mC]*dT*dT*dG*dA*eG*eT*eT*eA*e[5mC]; antisense) [compound 308623] |  |  | % INHIB 50 nm [3]: 62%; % INHIB 150 nm [4]: 71%
308624 (eT*e[5mC]*eG*e[5mC]*eG*d[5mC]*d[5mC]*dT*dT*d[5mC]*dT*dG*d[5mC]*dT*dT*eG*eA*eG*eT*eT; antisense) [compound 308624] |  |  | % INHIB 50 nm [3]: 69%; % INHIB 150 nm [4]: 89%
308625 (e[5mC]*eT*eT*e[5mC]*eG*d[5mC]*dG*d[5mC]*d[5mC]*dT*dT*d[5mC]*dT*dG*d[5mC]*eT*eT*eG*eA*eG; antisense) [compound 308625] |  |  | % INHIB 50 nm [3]: 64%; % INHIB 150 nm [4]: 83%
308626 (eA*eG*eT*e[5mC]*eT*dG*d[5mC]*dT*dT*d[5mC]*dG*d[5mC]*dG*d[5mC]*d[5mC]*eT*eT*e[5mC]*eT*eG; antisense) [compound 308626] |  |  | % INHIB 50 nm [3]: 38%; % INHIB 150 nm [4]: 94%
308627 (eT*e[5mC]*eA*eG*eT*d[5mC]*dT*dG*d[5mC]*dT*dT*d[5mC]*dG*d[5mC]*dG*e[5mC]*e[5mC]*eT*eT*e[5mC]; antisense) [compound 308627] |  |  | % INHIB 50 nm [3]: 67%; % INHIB 150 nm [4]: 89%
308628 (e[5mC]*e[5mC]*eT*e[5mC]*eA*dG*dT*d[5mC]*dT*dG*d[5mC]*dT*dT*d[5mC]*dG*e[5mC]*eG*e[5mC]*e[5mC]*eT; antisense) [compound 308628] |  |  | % INHIB 50 nm [3]: 61%; % INHIB 150 nm [4]: 92%
308629 (eA*eG*e[5mC]*e[5mC]*eT*d[5mC]*dA*dG*dT*d[5mC]*dT*dG*d[5mC]*dT*dT*e[5mC]*eG*e[5mC]*eG*e[5mC]; antisense) [compound 308629] |  |  | % INHIB 50 nm [3]: 77%; % INHIB 150 nm [4]: 95%
308630 (GCCTCAGTCTGCTTCGCGCC; 0-10-10 MOE gapmer, phosphorothioate, chemistry not fully specified) [compound 308630] |  |  | % INHIB 50 nm [5]: 69%; % INHIB 150 nm [6]: 89%
308631 (AGGTTACCAGCCACATGCAG; 0-10-10 MOE gapmer, phosphorothioate, chemistry not fully specified) [compound 308631] |  |  | % INHIB 50 nm [7]: 74%; % INHIB 150 nm [8]: 94%
308632 (GCCTCAGTCTGCTTCGCACC; 0-10-10 MOE gapmer, phosphorothioate, chemistry not fully specified) [compound 308632] |  |  | % INHIB 50 nm [7]: 41%; % INHIB 150 nm [8]: 97%
308633 (GCCTCAGTCTGCTTCGCGCC; 10-10-0 MOE gapmer, phosphorothioate, chemistry not fully specified) [compound 308633] |  |  | % INHIB 50 nm [5]: 66%; % INHIB 150 nm [6]: 83%

— patent US7803930B2, “Antisense modulation of apolipoprotein B-expression” (Isis Pharmaceuticals, Inc., priority 2002, dated 2010)
